Measurements as given in ChEMBL document CHEMBL1137148, “Synthesis, activity, metabolic stability, and pharmacokinetics of glucocorticoid receptor modulator-statin hybrids” (Bioorg Med Chem Lett, 2004).
pIC50: −log10 of the molar value.

Key:
[1] = biological target: T1, Glucocorticoid receptor (Homo sapiens, UniProt P04150); assay: Inhibition of dexamethasone-induced glucocorticoid receptor mediated alkaline phosphatase activity; type: functional
T1 sequence (P04150 whole entry): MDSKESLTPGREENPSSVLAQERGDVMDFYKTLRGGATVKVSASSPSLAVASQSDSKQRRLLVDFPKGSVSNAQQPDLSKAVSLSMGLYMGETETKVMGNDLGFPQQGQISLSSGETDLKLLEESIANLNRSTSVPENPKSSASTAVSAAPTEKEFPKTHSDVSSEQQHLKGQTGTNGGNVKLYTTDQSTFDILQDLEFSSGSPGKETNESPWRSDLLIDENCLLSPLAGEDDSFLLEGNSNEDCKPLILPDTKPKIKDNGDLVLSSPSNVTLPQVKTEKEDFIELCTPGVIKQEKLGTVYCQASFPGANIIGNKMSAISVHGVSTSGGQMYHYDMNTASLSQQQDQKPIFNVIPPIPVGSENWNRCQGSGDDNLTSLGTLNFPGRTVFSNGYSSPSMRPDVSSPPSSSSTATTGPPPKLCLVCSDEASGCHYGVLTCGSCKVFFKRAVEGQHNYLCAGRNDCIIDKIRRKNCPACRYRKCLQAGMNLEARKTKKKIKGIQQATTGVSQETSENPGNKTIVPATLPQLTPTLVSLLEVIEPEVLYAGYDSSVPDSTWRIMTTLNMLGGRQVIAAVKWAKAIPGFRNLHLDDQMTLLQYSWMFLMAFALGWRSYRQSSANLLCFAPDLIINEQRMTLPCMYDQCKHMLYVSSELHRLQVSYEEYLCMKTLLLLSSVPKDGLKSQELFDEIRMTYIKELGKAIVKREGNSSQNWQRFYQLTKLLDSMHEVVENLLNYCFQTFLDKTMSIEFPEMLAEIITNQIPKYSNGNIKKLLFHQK

[2] = biological target: T2, Glucocorticoid receptor (Rattus norvegicus, UniProt P06536); assay: Inhibition of dexamethasone-induced glucocorticoid receptor mediated tyrosine aminotransferase in rat hepatocytes; type: functional, cell-based, Hepatocyte
T2 sequence (P06536 whole entry): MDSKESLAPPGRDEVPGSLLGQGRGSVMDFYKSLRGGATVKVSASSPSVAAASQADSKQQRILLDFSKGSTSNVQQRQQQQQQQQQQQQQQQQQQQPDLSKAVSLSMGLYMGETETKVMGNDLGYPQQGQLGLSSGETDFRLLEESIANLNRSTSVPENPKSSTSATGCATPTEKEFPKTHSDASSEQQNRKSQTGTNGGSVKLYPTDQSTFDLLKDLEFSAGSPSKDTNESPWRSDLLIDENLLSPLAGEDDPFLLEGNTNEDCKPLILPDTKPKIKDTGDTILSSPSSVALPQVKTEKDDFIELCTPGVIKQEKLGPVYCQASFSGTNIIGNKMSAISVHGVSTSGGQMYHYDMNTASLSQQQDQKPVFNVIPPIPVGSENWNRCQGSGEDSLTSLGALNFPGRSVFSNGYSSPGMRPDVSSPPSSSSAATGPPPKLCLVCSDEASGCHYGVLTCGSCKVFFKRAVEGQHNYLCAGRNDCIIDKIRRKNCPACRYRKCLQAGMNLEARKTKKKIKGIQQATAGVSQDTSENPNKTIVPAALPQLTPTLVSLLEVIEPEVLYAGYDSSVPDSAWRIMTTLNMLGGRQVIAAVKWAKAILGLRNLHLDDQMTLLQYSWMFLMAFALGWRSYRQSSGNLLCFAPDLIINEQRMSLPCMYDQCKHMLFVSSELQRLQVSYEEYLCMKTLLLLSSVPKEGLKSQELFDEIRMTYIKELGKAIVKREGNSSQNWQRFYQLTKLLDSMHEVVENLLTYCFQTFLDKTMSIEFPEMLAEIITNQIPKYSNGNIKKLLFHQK

[3] = biological target: T1, Glucocorticoid receptor
[4] = biological target: T3, Progesterone receptor (Homo sapiens, UniProt P06401); assay: Inhibition of human progesterone receptor
T3 sequence (P06401 whole entry): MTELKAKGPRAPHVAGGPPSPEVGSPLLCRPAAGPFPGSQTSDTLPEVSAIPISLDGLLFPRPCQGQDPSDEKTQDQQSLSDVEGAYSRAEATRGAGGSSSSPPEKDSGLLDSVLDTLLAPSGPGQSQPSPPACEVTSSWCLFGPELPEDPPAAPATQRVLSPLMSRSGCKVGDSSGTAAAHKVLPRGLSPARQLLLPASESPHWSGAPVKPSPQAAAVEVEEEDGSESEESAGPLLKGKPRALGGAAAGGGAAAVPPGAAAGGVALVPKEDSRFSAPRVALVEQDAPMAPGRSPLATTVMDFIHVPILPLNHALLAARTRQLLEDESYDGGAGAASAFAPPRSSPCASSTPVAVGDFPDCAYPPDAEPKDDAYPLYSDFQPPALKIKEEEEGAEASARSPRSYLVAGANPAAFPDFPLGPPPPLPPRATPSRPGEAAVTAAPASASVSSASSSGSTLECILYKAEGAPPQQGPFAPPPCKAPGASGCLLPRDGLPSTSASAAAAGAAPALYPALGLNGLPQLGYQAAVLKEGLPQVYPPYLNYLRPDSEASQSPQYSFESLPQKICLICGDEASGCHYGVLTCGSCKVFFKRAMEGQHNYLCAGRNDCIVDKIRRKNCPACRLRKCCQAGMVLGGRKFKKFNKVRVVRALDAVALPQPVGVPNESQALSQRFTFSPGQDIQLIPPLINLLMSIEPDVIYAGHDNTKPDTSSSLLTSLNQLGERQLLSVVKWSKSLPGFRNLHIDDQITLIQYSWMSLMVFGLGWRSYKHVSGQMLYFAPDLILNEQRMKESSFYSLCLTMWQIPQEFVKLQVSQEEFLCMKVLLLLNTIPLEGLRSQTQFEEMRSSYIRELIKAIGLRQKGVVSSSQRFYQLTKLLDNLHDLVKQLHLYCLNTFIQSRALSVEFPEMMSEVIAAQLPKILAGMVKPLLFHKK

SMILES | pIC50 [1] | pIC50 [2] | pIC50 [3] | pIC50 [4]
CC#C[C@]1(O)CC[C@H]2[C@@H]3CCC4=CC(=O)CCC4=C3[C@@H](c3ccc(N(C)C[C@@H]4C[C@@H](O)CC(=O)O4)cc3)C[C@@]21C | 7.64 | 6.85 | 8.64 | 8.42
CC#C[C@]1(O)CC[C@H]2[C@@H]3CCC4=CC(=O)CCC4=C3[C@@H](c3ccc(N(C)C[C@@H](O)CC(=O)O)cc3)C[C@@]21C | 7.12 | 6.66 | 7.43 | 6.70
Cc1c(NS(C)(=O)=O)cccc1N(Cc1ccccc1)Cc1ccc(Oc2ccc(OC[C@@H](O)C[C@@H](O)CC(=O)O)cc2)cc1 | 6.52 | < 4.52 | 8.68 | 
Cc1c(NS(C)(=O)=O)cccc1N(Cc1ccccc1)Cc1ccc(Oc2ccc(OC[C@@H]3C[C@@H](O)CC(=O)O3)cc2)cc1 | 6.36 | < 4.52 | 8.68 | 

Second part, the molecule after the results:

pIC50 [1] | pIC50 [2] | pIC50 [3] | pIC50 [4] | SMILES
6.17 | < 4.52 | 7.60 |  | Cc1c(NS(C)(=O)=O)cccc1N(Cc1ccc(Oc2cccc(OC[C@@H]3C[C@@H](O)CC(=O)O3)c2)cc1)Cc1ccc(F)cc1F
6.12 | < 4.52 | 7.82 |  | Cc1c(NS(C)(=O)=O)cccc1N(Cc1ccc(Oc2cccc(OC[C@@H](O)C[C@@H](O)CC(=O)O)c2)cc1)Cc1ccc(F)cc1F
7.74 | 6.89 | 8.17 | 7.49 | CC#C[C@]1(O)CC[C@H]2[C@@H]3CCC4=CC(=O)CCC4=C3[C@@H](c3ccc(N(C)C[C@@H](O)C[C@@H](O)CC(=O)O)cc3)C[C@@]21C
5.54 | 6.25 | 8.04 | 7.33 | CC#C[C@]1(O)CC[C@H]2[C@@H]3CCC4=CC(=O)CCC4=C3[C@@H](c3ccc(OC[C@@H](O)CC(O)CC(=O)O)cc3)C[C@@]21C (single isomer, unassigned)
 | < 4.52 |  |  | Cc1c(NS(C)(=O)=O)cccc1N(Cc1ccc(Oc2ccccc2)cc1)Cc1ccc(F)cc1F
